Results on 20 molecules are retold here after patent US10399931B2, “Octahydroanthracene compound, preparation method and application thereof” (SHANDONG XINHUA PHARMACEUTICAL CO., LTD., priority 2016, dated 2019).

Molecules are shown by their SMILES. Like-named read-outs stand apart in the source and are kept apart here.

For assay [1], the system named is Human cutaneous T-cell lymphoma Hut102 cells. Description: MTT assay, proliferation of human cutaneous T-cell lymphoma Hut102 cells. Type of assay: cell-based. Here is the method:
(§1) The survival rate of cells was determined by MTT assay, which is based on the metabolic reduction of 3-(4,5-dimethyl-2thiahiazoyl)-3,5-di-phenyl-tetrazolium bromide (MTT) by viable cells. MTT is a yellow compound, a dye that accepts hydrogen ion, which can act on the respiratory chain in the mitochondria of viable cells. Under the action of succinate dehydrogenase and cytochrome C, the tetrazolium ring was cleaved to form blue Formazan crystals, and the amount of Formazan crystals generated was only proportional to the number of the viable cells. The enzymes disappeared in dead cells, so Formazan crystals could not be dissolved in MTT solution containing 20% sodium dodecyl sulfate (pH 4.7).
(§2) The cells in the logarithmic growth phase were selected and adjusted to an appropriate cell density, seeded in a 96-well plate, 100 μl/well, and cultured in a 37° C., 5% CO2 incubator. The cells were allowed to adhere overnight, then the culture medium was replaced and the drug was added to cultivate for 48 h. A blank control group, a drug administration group and a positive control group were set, with four repeats in each group.
(§3) After 48 h of drug treatment, the cells were incubated with 0.25 mg/ml MTT at 37° C. for 3-4 h, and 100 μl of dimethyl sulfoxide (DMSO) was added to each well after aspirating the culture solution.

Assay [2] concerns Human leukemia HL60 cells. Put plainly: MTT assay, proliferation of human leukemia HL60 cells. The conditions noted are these: Homo sapiens, HL-60, 48 h, read-out: Inhibitive rate (%) against HL60 cells. Type of assay: cell-based. Here is the method: as §1, §2, §3
Assay [3] concerns APP/PS1 transgenic mice. Description: Nesting experiment. Type of assay: in vivo. The conditions noted are these: at 12 h. From the text:
Each mouse was separately housed in a cage. On the first day of the test, two pieces of cotton (5 cm×5 cm) were placed in the cage. […]

[4] abbreviates: HuT-102, 10 μM, Mean ± SE, read-out: Inhibitive rate (%) against Hut102 cells.

Consider `CC1(C)CCC(C)(C)c2c1cc1c(c2NC(=O)c2ccc(C(=O)NO)cc2)C(C)(C)CCC1(C)C` [OAA3, N-hydroxy-4-[(1,1,4,4,5,5,8,8-octamethyl-1,2,3,4,5,6,7,8-octahydro-9-anthryl)carbamoyl] benzamide], for which the inhibition at 10 µM is 11.3 ± 0.46% in assay [1] (setting [4]) and 4.79 ± 6.65% in assay [2] (10 μM, 48 h, Mean ± SE). In the case of `COC(=O)c1ccc(C(=O)Nc2c3c(cc4c2C(C)(C)CCC4(C)C)C(C)(C)CCC3(C)C)cc1` [OAA-1, 4-[(1,1,4,4,5,5,8,8-octamethyl-1,2,3,4,5,6,7,8-octahydro-9-anthryl)carbamoyl] methyl Benzoate], the inhibition at 10 µM in assay [1] (setting [4]) worked out at 7.11 ± 1.06%; in assay [2] (10 μM, 48 h, Mean ± SE), 8.27 ± 1.57%. `CC1(C)CCC(C)(C)c2c1cc1c(c2NC(=O)c2ccc(C(=O)O)cc2)C(C)(C)CCC1(C)C` [OAA-2, 4-[(1,1,4,4,5,5,8,8-octamethyl-1,2,3,4,5,6,7,8-octahydro-9-anthryl)carbamoyl] benzoic Acid]: the inhibition at 10 µM in assay [1] (setting [4]) is -3.63 ± 1.07%; in assay [2] (10 μM, 48 h, Mean ± SE), 3.06 ± 2.23%. Regarding `CC1(C)CCC(C)(C)c2c1cc1c(c2NC(=O)c2ccc(C(=O)Nc3ccccc3N)cc2)C(C)(C)CCC1(C)C` [OAA-4, N-(2-aminophenyl)-4-[(1,1,4,4,5,5,8,8-octamethyl-1,2,3,4,5,6,7,8-octahydro-9-anthryl)carbamoyl] benzamide], the inhibition at 10 µM is 30.3 ± 0.7% in assay [1] (setting [4]) and 12.5 ± 1.32% in assay [2] (10 μM, 48 h, Mean ± SE).

For the molecule `CCN(CC)CCNC(=O)c1ccc(C(=O)Nc2c3c(cc4c2C(C)(C)CCC4(C)C)C(C)(C)CCC3(C)C)cc1` [OAA-5, N-[2-(N,N-diethylamino)]ethyl-4-[(1,1,4,4,5,5,8,8-octamethyl-1,2,3,4,5,6,7,8-octahydro-9-anthryl)carbamoyl] benzamide], the inhibition at 10 µM in assay [1] (setting [4]) was found to be 27.7 ± 2.38%; in assay [2] (10 μM, 48 h, Mean ± SE), 16.6 ± 1.43%.

In the case of `CN(C)CCNC(=O)c1ccc(C(=O)Nc2c3c(cc4c2C(C)(C)CCC4(C)C)C(C)(C)CCC3(C)C)cc1` [OAA-7, N-[2-(N,N-dimethylamino)]ethyl-4-[(1,1,4,4,5,5,8,8-octamethyl-1,2,3,4,5,6,7,8-octahydro-9-anthryl)carbamoyl] benzamide], the inhibition at 10 µM in assay [1] (setting [4]) was 8.34 ± 4.37%; in assay [2] (10 μM, 48 h, Mean ± SE), 10.8 ± 0.69%.

For `CC1(C)CCC(C)(C)c2c1cc1c(c2NC(=O)c2ccc(C(=O)Nc3ccccc3O)cc2)C(C)(C)CCC1(C)C` [OAA-12, N-(2-hydroxyphenyl)-4[(1,1,4,4,5,5,8,8-octamethyl-1,2,3,4,5,6,7,8-octahydro-9-anthryl)carbamoyl] benzamide], in assay [1] (setting [4]), the inhibition at 10 µM worked out at 25.1 ± 0.65%. In the case of `CC1(C)CCC(C)(C)c2c1cc1c(c2NC(=O)c2ccc(N)cc2)C(C)(C)CCC1(C)C` [OAB-1, 4[(1,1,4,4,5,5,8,8-octamethyl-1,2,3,4,5,6,7,8-octahydro-9-anthryl)carbamoyl] aniline], the inhibition at 10 µM in assay [1] (setting [4]) is 5.43 ± 2.54%; in assay [2] (10 μM, 48 h, Mean ± SE), 5.95 ± 2.98%.

As to `CCOC(=O)Nc1ccc(C(=O)Nc2c3c(cc4c2C(C)(C)CCC4(C)C)C(C)(C)CCC3(C)C)cc1` [OAB-2, 4-[(1,1,4,4,5,5,8,8-octamethyl-1,2,3,4,5,6,7,8-octahydro-9-anthryl)carbamoyl] ethyl phenylcarbamate], the inhibition at 10 µM in assay [1] (HuT-102, read-out: Inhibitive rate (%) against Hut102 cells) was 6.58 ± 1.51%; in assay [2], 4.51 ± 1.8%. On to `CC1(C)CCC(C)(C)c2c1cc1c(c2NC(=O)c2ccc(NC(=O)N3CCOCC3)cc2)C(C)(C)CCC1(C)C` [OAB-3, 4-[(1,1,4,4,5,5,8,8-octamethyl-1,2,3,4,5,6,7,8-octahydro-9-anthryl)carbamoyl] phenylcarbamoyl-1-morpholine], for which the inhibition at 10 µM in assay [1] (setting [4]) was -0.89 ± 3.47%; in assay [2] (10 μM, 48 h, Mean ± SE), 1.71 ± 5.44%. Take `CC1(C)CCC(C)(C)c2c1cc1c(c2NC(=O)c2ccc(NC(=O)Nc3ccccc3N)cc2)C(C)(C)CCC1(C)C` [OAB-4, 1-(2-aminophenyl)-3-{4-[(1,1,4,4,5,5,8,8-octamethyl-1,2,3,4,5,6,7,8-octahydro-9-anthryl)carbamoyl]phenyl} urea]: the inhibition at 10 µM in assay [1] (setting [4]) was 34 ± 0.93%; in assay [2] (10 μM, 48 h, Mean ± SE), 15.4 ± 1.16%. `CC1(C)CCC(C)(C)c2c1cc1c(c2NC(=O)c2ccc(N(S(C)(=O)=O)S(C)(=O)=O)cc2)C(C)(C)CCC1(C)C` [OAB-5, N,N-dimethylsulfonyl-4-[(1,1,4,4,5,5,8,8-octamethyl-1,2,3,4,5,6,7,8-octahydro-9-anthryl)carbamoyl] aniline]: the inhibition at 10 µM in assay [1] (setting [4]) worked out at 29.1 ± 1.39%; in assay [2] (10 μM, 48 h, Mean ± SE), 42.3 ± 1.05%. Regarding `CC1(C)CCC(C)(C)c2c1cc1c(c2NC(=O)c2ccc(NC(=O)NCCCC(=O)O)cc2)C(C)(C)CCC1(C)C` [OAB-7, 1-(4-carboxypropyl)-3-{4-[(1,1,4,4,5,5,8,8-octamethyl-1,2,3,4,5,6,7,8-octahydro-9-anthryl)carbamoyl]phenyl} urea], the inhibition at 10 µM in assay [1] (setting [4]) was 5.6 ± 3%; in assay [2] (10 μM, 48 h, Mean ± SE), 1.76 ± 1.41%. As to `COC(=O)Nc1ccc(C(=O)Nc2c3c(cc4c2C(C)(C)CCC4(C)C)C(C)(C)CCC3(C)C)cc1` [OAB-8, 4-[(1,1,4,4,5,5,8,8-octamethyl-1,2,3,4,5,6,7,8-octahydro-9-anthryl)carbamoyl] methyl Phenylcarbamate], the inhibition at 10 µM in assay [1] (setting [4]) is -1.05 ± 3.08%; in assay [2] (10 μM, 48 h, Mean ± SE) it was 7.24 ± 4.74%.

`CC1(C)CCC(C)(C)c2c1cc1c(c2NC(=O)c2ccc(NC(=O)N3CCC(C(=O)O)CC3)cc2)C(C)(C)CCC1(C)C` [OAB-9, N-{4-[(1,1,4,4,5,5,8,8-octamethyl-1,2,3,4,5,6,7,8-octahydro-9-anthryl)carbamoyl]phenylcarbamoyl}-4-piperidinyl Formic Acid]: the inhibition at 10 µM in assay [1] (setting [4]) was -0.3 ± 1.13%; in assay [2] (10 μM, 48 h, Mean ± SE), 8.03 ± 1.07%. Turning to `CC1(C)CCC(C)(C)c2c1cc1c(c2NC(=O)c2ccc(NC(=O)Nc3ccccc3O)cc2)C(C)(C)CCC1(C)C` [OAB-10, 1-(2-hydroxyphenyl)-3-{4-[(1,1,4,4,5,5,8,8-octamethyl-1,2,3,4,5,6,7,8-octahydro-9-anthryl)carbamoyl]phenyl} urea], the inhibition at 10 µM turned out to be 17.1 ± 0.93% in assay [1] (setting [4]) and 7.21 ± 0.96% in assay [2] (10 μM, 48 h, Mean ± SE).

In the case of `CC1(C)CCC(C)(C)c2c1cc1c(c2NC(=O)c2ccc(NC(=O)NO)cc2)C(C)(C)CCC1(C)C` [OAB-15, 1-hydroxy-3-{4-[(1,1,4,4,5,5,8,8-octamethyl-1,2,3,4,5,6,7,8-octahydro-9-anthryl)carbamoyl]phenyl} urea], the inhibition at 10 µM in assay [1] (setting [4]) stood at 2.3 ± 3.26%; in assay [2] (10 μM, 48 h, Mean ± SE) it was 0.59 ± 1.44%. The corresponding values for `CC1(C)CCC(C)(C)c2c1cc1c(c2NC(=O)c2ccc(NC(=O)ON)cc2)C(C)(C)CCC1(C)C` [OAB-16, 4-[(1,1,4,4,5,5,8,8-octamethyl-1,2,3,4,5,6,7,8-octahydro-9-anthryl)carbamoyl] phenyl Carbamic Acid-O-Amino Ester] are 8.38 ± 2.31% and 1.67 ± 3.24%. The corresponding values for `CC1(C)CCC(C)(C)c2c1cc1c(c2NC(=O)c2ccc(NC(=O)NCCCO)cc2)C(C)(C)CCC1(C)C` [OAB-18, 1-(3-hydroxy) propyl-3-{4-[(1,1,4,4,5,5,8,8-octamethyl-1,2,3,4,5,6,7,8-octahydro-9-anthryl)carbamoyl]phenyl} urea] are 4.32 ± 1.29% and 2.47 ± 2.64%. Regarding `COc1cc2c(cc1OC)C(=O)C(CC1CCN(Cc3ccccc3)CC1)C2` (centres unmarked) [donepezil, reference compound], the “Nesting ability vs model group” value in assay [3] is “significantly increased”.
